Strand notation (5' to 3'): a small letter for the sugar, then the base; units joined by * are phosphorothioate-linked, units joined directly phosphodiester-linked; [ ] holds rarer units or linkages, { } end groups; capitals alone tell only the bases. k = constrained ethyl (cEt); [5mC] = 5-methylcytosine; d = 2'-deoxy (DNA)
What follows are substances tested on human SMAD7 mRNA (assay: Antisense inhibition of human SMAD7 mRNA expression in Hep3B cells by 3-10-3 cEt gapmers, 10,000 nM, electroporation (Example 2)). Conditions: Hep3B cells, electroporation with 10,000 nM antisense oligonucleotide, approximately 24 hours, RTS5062, percent inhibition of SMAD7 mRNA relative to untreated control cells.
Format: cell-based
Summary of the method: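 Percent inhibition of SMAD7 mRNA, relative to untreated cells, after ~24 h exposure of electroporated Hep3B cells to 10,000 nM cEt gapmer; levels by qRT-PCR, corrected for total RNA.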

Row | Substance | % Inhibition [%]
1 | 799309 (antisense kG*k[5mC]*kA*d[5mC]*dG*d[5mC]*dT*d[5mC]*dT*dA*dA*dA*d[5mC]*kA*kG*k[5mC]) [compound 799309] | 42
2 | 799310 (antisense kT*kA*kA*dG*d[5mC]*dA*d[5mC]*dG*d[5mC]*dT*d[5mC]*dT*dA*kA*kA*k[5mC]) [compound 799310] | 18
3 | 799311 (antisense k[5mC]*kT*kT*dT*dA*dA*dG*d[5mC]*dA*d[5mC]*dG*d[5mC]*dT*k[5mC]*kT*kA) [compound 799311] | 27
4 | 799313 (antisense kA*kT*k[5mC]*d[5mC]*dA*dT*d[5mC]*dT*dT*dT*dA*dA*dG*k[5mC]*kA*k[5mC]) [compound 799313] | 0
5 | 799314 (antisense k[5mC]*kA*kA*dG*dA*dT*d[5mC]*d[5mC]*dA*dT*d[5mC]*dT*dT*kT*kA*kA) [compound 799314] | 0
6 | 799315 (antisense k[5mC]*kA*k[5mC]*d[5mC]*dA*dA*dG*dA*dT*d[5mC]*d[5mC]*dA*dT*k[5mC]*kT*kT) [compound 799315] | 15
7 | 799316 (antisense kA*kA*kA*d[5mC]*dA*d[5mC]*d[5mC]*dA*dA*dG*dA*dT*d[5mC]*k[5mC]*kA*kT) [compound 799316] | 0
8 | 799317 (antisense kT*kA*kA*dA*dA*dA*d[5mC]*dA*d[5mC]*d[5mC]*dA*dA*dG*kA*kT*k[5mC]) [compound 799317] | 0

Same assay, conditions: Hep3B cells, electroporation with 10,000 nM antisense oligonucleotide, approximately 24 hours, SMAD7 mRNA by RT-PCR (RTS5062), relative to untreated control cells

Row | Substance | % Inhibition [%]
9 | 799328 (kA*kT*kG*d[5mC]*dA*d[5mC]*dA*d[5mC]*dT*d[5mC]*dT*d[5mC]*d[5mC]*k[5mC]*kA*kG; antisense) [compound 799328] | 0
10 | 799329 (kG*kT*kA*dT*dG*d[5mC]*dA*d[5mC]*dA*d[5mC]*dT*d[5mC]*dT*k[5mC]*k[5mC]*k[5mC]; antisense) [compound 799329] | 0
11 | 799330 (kG*kG*kT*dA*dT*dG*d[5mC]*dA*d[5mC]*dA*d[5mC]*dT*d[5mC]*kT*k[5mC]*k[5mC]; antisense) [compound 799330] | 45
12 | 799331 (kA*kG*kG*dG*dT*dA*dT*dG*d[5mC]*dA*d[5mC]*dA*d[5mC]*kT*k[5mC]*kT; antisense) [compound 799331] | 1
13 | 799332 (kG*kG*kG*dA*dA*dT*dG*d[5mC]*d[5mC]*d[5mC]*dT*dT*dT*kG*kA*kG; antisense) [compound 799332] | 45
14 | 799333 (kA*kG*kA*dA*dA*dA*d[5mC]*d[5mC]*dT*dG*dG*dA*dA*kG*kG*kG; antisense) [compound 799333] | 24
15 | 799334 (k[5mC]*k[5mC]*kG*dT*dA*dG*dA*d[5mC]*d[5mC]*d[5mC]*d[5mC]*dT*dT*k[5mC]*kG*kG; antisense) [compound 799334] | 21
16 | 799335 (kT*kG*k[5mC]*dA*dG*dG*dA*dG*d[5mC]*dA*dG*dT*dG*k[5mC]*k[5mC]*k[5mC]; antisense) [compound 799335] | 31
17 | 799336 (kA*k[5mC]*kT*dG*d[5mC]*dA*dG*dG*dA*dG*d[5mC]*dA*dG*kT*kG*k[5mC]; antisense) [compound 799336] | 25
18 | 799337 (kG*kT*k[5mC]*dT*dT*dT*d[5mC]*d[5mC]*dG*dG*dG*dT*dG*k[5mC]*kG*kG; antisense) [compound 799337] | 30
19 | 799348 (kA*kT*kA*dA*dA*dA*dG*dG*dA*dA*dA*dG*dG*kA*kG*kT; antisense) [compound 799348] | 21
20 | 799349 (kA*kG*k[5mC]*dG*d[5mC]*dA*d[5mC]*dT*d[5mC]*dG*dG*dG*dA*kG*kA*kT; antisense) [compound 799349] | 0
21 | 799350 (kA*kT*kT*d[5mC]*d[5mC]*dT*dA*dG*d[5mC]*dG*d[5mC]*dA*d[5mC]*kT*k[5mC]*kG; antisense) [compound 799350] | 31
22 | 799351 (kT*kT*kT*dA*dG*d[5mC]*dT*dG*dT*d[5mC]*dA*dG*dA*kT*kA*kA; antisense) [compound 799351] | 31
23 | 799352 (kG*k[5mC]*kG*dG*dT*dG*dA*dT*dT*dG*d[5mC]*d[5mC]*dT*kT*kG*kA; antisense) [compound 799352] | 24
24 | 799353 (kT*k[5mC]*kT*dT*dT*dT*dA*dG*d[5mC]*d[5mC]*d[5mC]*dA*dA*k[5mC]*kT*kG; antisense) [compound 799353] | 45
25 | 799354 (kA*kT*k[5mC]*dT*dA*d[5mC]*dT*d[5mC]*dA*d[5mC]*d[5mC]*dA*dG*kT*kT*kG; antisense) [compound 799354] | 0
26 | 799355 (kA*kG*kG*dA*dA*dA*d[5mC]*d[5mC]*dT*dA*dG*dA*dA*k[5mC]*k[5mC]*kA; antisense) [compound 799355] | 23
27 | 799356 (kG*kA*kA*dA*dA*dA*dT*dT*d[5mC]*dA*d[5mC]*d[5mC]*dA*kA*kA*k[5mC]; antisense) [compound 799356] | 23
28 | 799357 (k[5mC]*kA*k[5mC]*dA*dA*d[5mC]*dA*dG*dA*dA*dA*dA*dA*kT*kT*k[5mC]; antisense) [compound 799357] | 41

Same assay, conditions: Hep3B cells, electroporation with 10,000 nM antisense oligonucleotide, approximately 24 hours, primer probe set RTS5062, relative to untreated control cells

Row | Substance | % inhibition of SMAD7 mRNA expression [%]
29 | 799323 (antisense k[5mC]*k[5mC]*kA*dG*dG*dA*dG*dG*dG*dT*dA*dT*dG*k[5mC]*kA*k[5mC]) [compound 799323] | 60
30 | 799324 (antisense kT*k[5mC]*k[5mC]*d[5mC]*dA*dG*dG*dA*dG*dG*dG*dT*dA*kT*kG*k[5mC]) [compound 799324] | 6
31 | 799325 (antisense kT*k[5mC]*kT*d[5mC]*d[5mC]*d[5mC]*dA*dG*dG*dA*dG*dG*dG*kT*kA*kT) [compound 799325] | 2
32 | 799326 (kA*k[5mC]*kA*d[5mC]*dT*d[5mC]*dT*d[5mC]*d[5mC]*d[5mC]*dA*dG*dG*kA*kG*kG; antisense) [compound 799326] | 31
33 | 799327 (kG*k[5mC]*kA*d[5mC]*dA*d[5mC]*dT*d[5mC]*dT*d[5mC]*d[5mC]*d[5mC]*dA*kG*kG*kA; antisense) [compound 799327] | 52
34 | 799338 (kT*kT*kA*dT*dA*dG*d[5mC]*dA*d[5mC]*dG*d[5mC]*d[5mC]*dT*k[5mC]*kT*k[5mC]; antisense) [compound 799338] | 0
35 | 799339 (kG*kA*kT*dA*d[5mC]*d[5mC]*d[5mC]*dA*dG*dT*dT*d[5mC]*dG*kG*k[5mC]*k[5mC]; antisense) [compound 799339] | 18
36 | 799340 (kA*kG*kA*dT*dA*d[5mC]*d[5mC]*d[5mC]*dA*dG*dT*dT*d[5mC]*kG*kG*k[5mC]; antisense) [compound 799340] | 0
37 | 799341 (kG*kA*kA*dG*dG*dA*dA*dA*dA*dA*dG*dT*dA*kG*kG*kG; antisense) [compound 799341] | 8
38 | 799342 (k[5mC]*kT*kT*dA*dT*d[5mC]*dT*dG*dT*dG*d[5mC]*dG*dG*kA*kA*kG; antisense) [compound 799342] | 44
39 | 799343 (kA*k[5mC]*kT*dA*dA*dT*d[5mC]*dT*dA*d[5mC]*dA*dG*dA*k[5mC]*kT*kT; antisense) [compound 799343] | 53
40 | 799344 (k[5mC]*k[5mC]*k[5mC]*dA*d[5mC]*dT*dA*dA*dT*d[5mC]*dT*dA*d[5mC]*kA*kG*kA; antisense) [compound 799344] | 34
41 | 799345 (k[5mC]*kG*kA*dG*dA*dA*dG*d[5mC]*d[5mC]*d[5mC]*dA*dG*dG*k[5mC]*k[5mC]*k[5mC]; antisense) [compound 799345] | 20
42 | 799346 (kT*k[5mC]*kT*d[5mC]*dA*dG*d[5mC]*d[5mC]*dG*dA*dG*dA*dA*kG*k[5mC]*k[5mC]; antisense) [compound 799346] | 26
43 | 799347 (kA*kA*kG*dG*dA*dG*dT*dT*dT*d[5mC]*dA*dG*dG*kG*kT*k[5mC]; antisense) [compound 799347] | 59
44 | 799358 (kA*kG*k[5mC]*dA*d[5mC]*dA*dA*dA*dT*dA*d[5mC]*dA*dT*kG*kA*kA; antisense) [compound 799358] | 52
45 | 799359 (kT*kG*kT*dT*dA*dA*dA*dG*d[5mC]*dT*dG*dA*dG*k[5mC]*k[5mC]*k[5mC]; antisense) [compound 799359] | 22
46 | 799360 (k[5mC]*k[5mC]*kA*dA*dG*dA*d[5mC]*dA*d[5mC]*dT*dT*d[5mC]*dT*k[5mC]*kT*k[5mC]; antisense) [compound 799360] | 42
47 | 799361 (kG*kT*k[5mC]*d[5mC]*dT*dA*dT*dT*dT*dG*dG*dT*dT*k[5mC]*k[5mC]*k[5mC]; antisense) [compound 799361] | 77
48 | 799362 (k[5mC]*kA*kT*d[5mC]*dA*dA*d[5mC]*d[5mC]*dA*dG*dT*d[5mC]*d[5mC]*kT*kA*kT; antisense) [compound 799362] | 39
49 | 799363 (kG*kA*kG*dT*dT*dA*dT*d[5mC]*d[5mC]*d[5mC]*d[5mC]*dA*dT*k[5mC]*kA*kA; antisense) [compound 799363] | 49

Same assay, conditions: Hep3B cells, electroporation, 10,000 nM antisense oligonucleotide, approximately 24 hours, RTS5062, relative to untreated control cells

Row | Substance | % inhibition of SMAD7 mRNA expression [%]
50 | 799319 (antisense kT*kG*k[5mC]*dT*dG*dT*dG*dG*dA*dT*dT*dT*dG*kA*kA*kA) [compound 799319] | 0
51 | 799320 (antisense kG*kT*k[5mC]*dT*dG*d[5mC]*dT*dG*dT*dG*dG*dA*dT*kT*kT*kG) [compound 799320] | 0
